Read-outs that look alike come from different tables or passages of the source.
Key:
PfCRT^3D7 [1] = target: T1, PfCRT^3D7 (Plasmodium falciparum, UniProt Q8IBZ9); test: cell-based; assay type: cell-based; details: PfCRT3D7 oocytes; for Uptake of [3H]CQ (% PfCRT3D7 control), trans-stimulation: total [3H]CQ transport, normalised to the oocyte type control; for PfCRT-mediated [3H]CQ transport, trans-stimulation (% PfCRT3D7 control): normalised to oocyte type control
Outline: (§1)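 Transport measured in Xenopus oocytes expressing the transporters, 1.5 h at 27.5 °C in ND96 pH 5.5 unless noted. For trans-stimulation, VF-6 injected in 25 nL ND96 at pH 5.0–7.0 or Na^+-free (choline) buffer; intracellular levels based on ~400 nL oocyte volume. Ten oocytes per treatment, ≥4 experiments.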

PfCRT^Ecu1110 [2] = target: T2, PfCRT^Ecu1110 (Plasmodium falciparum, UniProt Q9N623, A220S/I356L/K76T/N326D); test: cell-based; assay type: cell-based; details: for Uptake of [3H]CQ (% PfCRTEcu1110 control), trans-stimulation / PfCRT-mediated [3H]CQ transport, trans-stimulation (% PfCRTEcu1110 control): PfCRTEcu1110 oocytes; for Uptake of [3H]CQ (% PfCRTEcu1110 control), trans-stimulation: total [3H]CQ transport, normalised to the oocyte type control; for PfCRT-mediated [3H]CQ transport, trans-stimulation (% PfCRTEcu1110 control): normalised to oocyte type control; for [3H]CQ transport (% PfCRTDd2 control), trans-stimulation, PfCRTEcu1110: PfCRT-mediated component (background subtracted), sheet title says normalised to PfCRTDd2 control, mean ± SEM, SEM
T2 sequence (Q9N623 whole entry A220S/I356L/K76T/N326D): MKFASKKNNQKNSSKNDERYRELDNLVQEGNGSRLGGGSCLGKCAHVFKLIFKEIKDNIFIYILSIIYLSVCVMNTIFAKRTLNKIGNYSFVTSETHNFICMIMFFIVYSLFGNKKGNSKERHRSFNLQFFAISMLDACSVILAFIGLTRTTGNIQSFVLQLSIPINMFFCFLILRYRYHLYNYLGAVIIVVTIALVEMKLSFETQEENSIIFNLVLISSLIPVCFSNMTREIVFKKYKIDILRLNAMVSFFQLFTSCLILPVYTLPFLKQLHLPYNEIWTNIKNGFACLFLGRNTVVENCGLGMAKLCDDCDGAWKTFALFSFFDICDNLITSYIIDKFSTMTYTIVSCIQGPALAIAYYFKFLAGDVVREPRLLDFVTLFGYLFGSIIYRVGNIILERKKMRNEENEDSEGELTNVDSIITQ
Outline: as §1

PfCRT^Dd2 [3] = target: T3, PfCRT^Dd2 (Plasmodium falciparum, UniProt Q9N623, A220S/I356T/K76T/M74I/N326S/N75E/Q271E/R371I); test: cell-based; assay type: cell-based; details: for Uptake of [3H]CQ (% PfCRTDd2 control), trans-stimulation / PfCRT-mediated [3H]CQ transport, trans-stimulation (% PfCRTDd2 control): PfCRTDd2 oocytes; for Uptake of [3H]CQ (% PfCRTDd2 control), trans-stimulation: total [3H]CQ transport, normalised to the oocyte type control; for PfCRT-mediated [3H]CQ transport, trans-stimulation (% PfCRTDd2 control): normalised to oocyte type control; for [3H]CQ transport (% PfCRTDd2 control), trans-stimulation, PfCRTDd2: PfCRT-mediated component (background subtracted), mean ± SEM, SEM
T3 sequence (Q9N623 whole entry A220S/I356T/K76T/M74I/N326S/N75E/Q271E/R371I): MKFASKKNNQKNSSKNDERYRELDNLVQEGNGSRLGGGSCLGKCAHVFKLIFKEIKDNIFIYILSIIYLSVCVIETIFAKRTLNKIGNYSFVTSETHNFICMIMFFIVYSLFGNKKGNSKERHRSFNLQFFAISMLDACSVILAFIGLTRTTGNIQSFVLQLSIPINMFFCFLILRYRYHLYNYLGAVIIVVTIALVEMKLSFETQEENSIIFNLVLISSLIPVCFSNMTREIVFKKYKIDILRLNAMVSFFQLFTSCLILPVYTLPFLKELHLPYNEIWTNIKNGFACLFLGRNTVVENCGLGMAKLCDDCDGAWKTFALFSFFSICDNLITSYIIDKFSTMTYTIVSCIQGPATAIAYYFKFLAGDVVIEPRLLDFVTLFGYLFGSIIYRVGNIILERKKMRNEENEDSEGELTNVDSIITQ
Outline: as §1

PfNT1 = target: T4, PfNT1 (Plasmodium falciparum, UniProt Q8IDM6); test: cell-based; assay type: cell-based; details: PfNT1 oocytes, total [3H]CQ transport, normalised to the oocyte type control
T4 construct: expressed in transfected cells; host or cells: Xenopus laevis oocytes (stage V-VI), cRNA-injected
T4 sequence (Q8IDM6 whole entry): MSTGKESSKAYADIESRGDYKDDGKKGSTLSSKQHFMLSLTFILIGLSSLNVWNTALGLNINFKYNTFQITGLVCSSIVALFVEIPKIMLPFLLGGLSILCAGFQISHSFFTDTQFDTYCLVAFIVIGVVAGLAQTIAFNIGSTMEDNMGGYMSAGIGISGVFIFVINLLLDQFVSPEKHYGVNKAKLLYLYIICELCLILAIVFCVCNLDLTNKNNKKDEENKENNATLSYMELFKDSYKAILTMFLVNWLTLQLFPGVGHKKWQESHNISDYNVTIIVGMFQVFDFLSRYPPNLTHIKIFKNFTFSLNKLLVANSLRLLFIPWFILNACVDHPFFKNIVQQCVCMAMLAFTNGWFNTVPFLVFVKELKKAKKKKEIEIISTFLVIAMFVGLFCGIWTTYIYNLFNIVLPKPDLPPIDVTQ
Outline: as §1

non-expressing oocytes [4] = test: cells; assay type: cell-based, Xenopus laevis; details: non-expressing oocytes, total [3H]CQ transport, normalised to the oocyte type control
Outline: (§2)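 Washed oocytes (ten per treatment) were exposed to label in pH 5.5 ND96 for 1.5 h at 27.5 °C. Buffer was then removed, cells rinsed in ice-cold ND96, lysed in SDS and counted.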

non-expressing oocytes [5] = assay type: cell-based, Xenopus laevis; details: non-expressing oocytes, total [3H]CQ transport, normalised to the oocyte type control
Outline: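 Oocytes (ten per treatment, ≥4 independent frogs/days) were preloaded by injecting VF-6 in 25 nL ND96 at pH 5.0, 5.5, 6.0 or 7.0, or Na^+-free choline buffer, then uptake run 1.5 h, 27.5 °C, ND96 pH 5.5 by default. Internal concentrations assumed ~400 nL oocyte volume.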

PfCRT^Ecu1110 [6] = target: T2, PfCRT^Ecu1110; test: [3H]CQ uptake into Xenopus oocytes, cis-inhibition by unlabelled solute; assay type: cell-based; details: for Uptake of [3H]CQ (% PfCRTEcu1110 control), cis-inhibition / PfCRT-mediated [3H]CQ transport, cis-inhibition (% PfCRTEcu1110 control): PfCRTEcu1110 oocytes; for Uptake of [3H]CQ (% PfCRTEcu1110 control), cis-inhibition: total [3H]CQ transport, normalised to the oocyte type control; for PfCRT-mediated [3H]CQ transport, cis-inhibition (% PfCRTEcu1110 control): background [3H]CQ accumulation subtracted, normalised to oocyte type control; for [3H]CQ transport (% PfCRTEcu1110 control), cis-inhibition, PfCRTEcu1110: PfCRT-mediated component (background subtracted), sheet title says normalised to PfCRTDd2 control, mean ± SEM, SEM
Outline: as §2

PfCRT^Dd2 [7] = target: T3, PfCRT^Dd2; test: as above; assay type: cell-based; details: PfCRTDd2 oocytes, background [3H]CQ accumulation subtracted, normalised to oocyte type control
Outline: as §2

PfCRT^3D7 [8] = target: T1, PfCRT^3D7; test: cell-based; assay type: cell-based; details: PfCRT3D7 oocytes, total [3H]CQ transport, normalised to the oocyte type control
Outline: as §2

[9] = [test solute]i = 45 mM (30 mM for some solutes due to solubility)
[10] = [test solute]i = 5 mM (intracellular)
[11] = [test solute]i = 45 mM (intracellular; 30 mM for some solutes due to solubility)
[12] = [test solute]i = 5 mM (injected)

T1 sequence (Q8IBZ9 59-398): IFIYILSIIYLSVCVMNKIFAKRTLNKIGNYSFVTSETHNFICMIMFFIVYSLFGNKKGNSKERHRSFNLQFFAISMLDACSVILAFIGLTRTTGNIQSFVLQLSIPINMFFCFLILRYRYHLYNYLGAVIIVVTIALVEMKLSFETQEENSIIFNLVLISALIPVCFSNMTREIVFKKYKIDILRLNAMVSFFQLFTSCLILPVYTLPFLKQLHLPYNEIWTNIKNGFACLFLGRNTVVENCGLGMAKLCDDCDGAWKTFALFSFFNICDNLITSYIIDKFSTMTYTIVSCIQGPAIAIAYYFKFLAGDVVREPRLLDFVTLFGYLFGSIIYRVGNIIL

PENF [PEF-4] was tested, and the “Uptake of [3H]CQ (% PfCRT3D7 control), trans-stimulation” value (PfCRT^3D7 [1]; [test solute]i = 5 mM) was 135 ± 6.8 % PfCRT3D7 control, the “Uptake of [3H]CQ (% PfCRT3D7 control), trans-stimulation” value (PfCRT^3D7 [1]; [9]) was 151 ± 8.0 % PfCRT3D7 control and the “PfCRT-mediated [3H]CQ transport, trans-stimulation (% PfCRT3D7 control)” value (PfCRT^3D7 [1]; [10]) was 128 ± 3.6 % PfCRT3D7 control. For the same substance, the “PfCRT-mediated [3H]CQ transport, trans-stimulation (% PfCRT3D7 control)” value (PfCRT^3D7 [1]; [11]) was 145 ± 4.7 % PfCRT3D7 control, the “Uptake of [3H]CQ (% PfCRTEcu1110 control), trans-stimulation” value (PfCRT^Ecu1110 [2]; [test solute]i = 5 mM) was 121 ± 3.2 % PfCRTEcu1110 control and the “Uptake of [3H]CQ (% PfCRTEcu1110 control), trans-stimulation” value (PfCRT^Ecu1110 [2]; [9]) was 132 ± 3.7 % PfCRTEcu1110 control. The “PfCRT-mediated [3H]CQ transport, trans-stimulation (% PfCRTEcu1110 control)” value (PfCRT^Ecu1110 [2]; [10]) was 118 ± 1.1 % PfCRTEcu1110 control, the “PfCRT-mediated [3H]CQ transport, trans-stimulation (% PfCRTEcu1110 control)” value (PfCRT^Ecu1110 [2]; [11]) was 128 ± 2.0 % PfCRTEcu1110 control and the “[3H]CQ transport (% PfCRTDd2 control), trans-stimulation, PfCRTEcu1110” value (PfCRT^Ecu1110 [2]; [12]) was 36 ± 1.6 % PfCRTEcu1110 control. For the same substance, the “[3H]CQ transport (% PfCRTDd2 control), trans-stimulation, PfCRTEcu1110” value (PfCRT^Ecu1110 [2]; [9]) was 39 ± 1.3 % PfCRTEcu1110 control, the “Uptake of [3H]CQ (% PfCRTDd2 control), trans-stimulation” value (PfCRT^Dd2 [3]; [test solute]i = 5 mM) was 102 ± 2.2 % PfCRTDd2 control and the “Uptake of [3H]CQ (% PfCRTDd2 control), trans-stimulation” value (PfCRT^Dd2 [3]; [9]) was 99 ± 2.8 % PfCRTDd2 control. For the same substance, the “PfCRT-mediated [3H]CQ transport, trans-stimulation (% PfCRTDd2 control)” value (PfCRT^Dd2 [3]; [10]) was 100 ± 3.2 % PfCRTDd2 control, the “PfCRT-mediated [3H]CQ transport, trans-stimulation (% PfCRTDd2 control)” value (PfCRT^Dd2 [3]; [11]) was 97 ± 3.2 % PfCRTDd2 control and the “[3H]CQ transport (% PfCRTDd2 control), trans-stimulation, PfCRTDd2” value (PfCRT^Dd2 [3]; [12]) was 100 ± 3.2 % PfCRTDd2 control. For the same substance, the “[3H]CQ transport (% PfCRTDd2 control), trans-stimulation, PfCRTDd2” value (PfCRT^Dd2 [3]; [9]) was 97 ± 3.2 % PfCRTDd2 control, the “Uptake of [3H]CQ (% PfNT1 control), trans-stimulation” value (PfNT1; [test solute]i = 5 mM) was 101 ± 2.2 % PfNT1 control and the “Uptake of [3H]CQ (% PfNT1 control), trans-stimulation” value (PfNT1; [9]) was 99 ± 2.7 % PfNT1 control. For the same substance, the “Uptake of [3H]CQ (% non-expressing oocyte control), cis-inhibition” value (non-expressing oocytes [4]; [test solute] = 0.5 mM) was 99 ± 5.8 % non-expressing oocyte control, the “Uptake of [3H]CQ (% non-expressing oocyte control), cis-inhibition” value (non-expressing oocytes [4]; [test solute] = 1 mM) was 98 ± 4.6 % non-expressing oocyte control and the “Uptake of [3H]CQ (% non-expressing oocyte control), cis-inhibition” value (non-expressing oocytes [4]; [test solute] = 2 mM) was 99 ± 4.4 % non-expressing oocyte control. For the same substance, the “Uptake of [3H]CQ (% non-expressing oocyte control), trans-stimulation” value (non-expressing oocytes [5]; [test solute]i = 5 mM) was 97 ± 3.5 % non-expressing oocyte control, the “Uptake of [3H]CQ (% non-expressing oocyte control), trans-stimulation” value (non-expressing oocytes [5]; [9]) was 100 ± 3.2 % non-expressing oocyte control and the “Uptake of [3H]CQ (% PfCRTEcu1110 control), cis-inhibition” value (PfCRT^Ecu1110 [6]; [test solute] = 0.5 mM) was 55 ± 4.2 % PfCRTEcu1110 control. The “Uptake of [3H]CQ (% PfCRTEcu1110 control), cis-inhibition” value (PfCRT^Ecu1110 [6]; [test solute] = 1 mM) was 45 ± 4.7 % PfCRTEcu1110 control, the “Uptake of [3H]CQ (% PfCRTEcu1110 control), cis-inhibition” value (PfCRT^Ecu1110 [6]; [test solute] = 2 mM) was 34 ± 3.4 % PfCRTEcu1110 control and the “PfCRT-mediated [3H]CQ transport, cis-inhibition (% PfCRTEcu1110 control)” value (PfCRT^Ecu1110 [6]; [test solute] = 0.5 mM) was 49 ± 2.6 % PfCRTEcu1110 control. For the same substance, the “PfCRT-mediated [3H]CQ transport, cis-inhibition (% PfCRTEcu1110 control)” value (PfCRT^Ecu1110 [6]; [test solute] = 1 mM) was 40 ± 3.5 % PfCRTEcu1110 control, the “PfCRT-mediated [3H]CQ transport, cis-inhibition (% PfCRTEcu1110 control)” value (PfCRT^Ecu1110 [6]; [test solute] = 2 mM) was 28 ± 2.1 % PfCRTEcu1110 control and the “[3H]CQ transport (% PfCRTEcu1110 control), cis-inhibition, PfCRTEcu1110” value (PfCRT^Ecu1110 [6]; [test solute] = 0.5 mM) was 15 ± 0.1 % PfCRTEcu1110 control. The “[3H]CQ transport (% PfCRTEcu1110 control), cis-inhibition, PfCRTEcu1110” value (PfCRT^Ecu1110 [6]; [test solute] = 1 mM) was 13 ± 0.3 % PfCRTEcu1110 control, the “[3H]CQ transport (% PfCRTEcu1110 control), cis-inhibition, PfCRTEcu1110” value (PfCRT^Ecu1110 [6]; [test solute] = 2 mM) was 9.0 ± 0.01 % PfCRTEcu1110 control and the “PfCRT-mediated [3H]CQ transport, cis-inhibition (% PfCRTDd2 control)” value (PfCRT^Dd2 [7]; [test solute] = 0.5 mM) was 52 ± 2.0 % PfCRTDd2 control. The “PfCRT-mediated [3H]CQ transport, cis-inhibition (% PfCRTDd2 control)” value (PfCRT^Dd2 [7]; [test solute] = 1 mM) was 37 ± 2.1 % PfCRTDd2 control, the “PfCRT-mediated [3H]CQ transport, cis-inhibition (% PfCRTDd2 control)” value (PfCRT^Dd2 [7]; [test solute] = 2 mM) was 17 ± 0.3 % PfCRTDd2 control and the “Uptake of [3H]CQ (% PfCRT3D7 control), cis-inhibition” value (PfCRT^3D7 [8]; [test solute] = 0.5 mM) was 100 ± 5.3 % PfCRT3D7 control. For the same substance, the “Uptake of [3H]CQ (% PfCRT3D7 control), cis-inhibition” value (PfCRT^3D7 [8]; [test solute] = 1 mM) was 98 ± 3.5 % PfCRT3D7 control and the “Uptake of [3H]CQ (% PfCRT3D7 control), cis-inhibition” value (PfCRT^3D7 [8]; [test solute] = 2 mM) was 100 ± 4.4 % PfCRT3D7 control.

Reference: paper PMC7413254 (Nature Communications, 2020)
